In patent US20180021361A1, “COMBINATION DRUG TREATMENT FOR HEPATITIS C INFECTION” (JANSSEN PHARMACEUTICALS, INC., priority 2016, published 2018):

Key:
CYP = CYP inhibition
OATP1B1 = molecular target: T1, OATP1B1 (Homo sapiens, UniProt Q9Y6L6); conditions: uptake transporter; cited from earlier work
T1 sequence (Q9Y6L6 1-691): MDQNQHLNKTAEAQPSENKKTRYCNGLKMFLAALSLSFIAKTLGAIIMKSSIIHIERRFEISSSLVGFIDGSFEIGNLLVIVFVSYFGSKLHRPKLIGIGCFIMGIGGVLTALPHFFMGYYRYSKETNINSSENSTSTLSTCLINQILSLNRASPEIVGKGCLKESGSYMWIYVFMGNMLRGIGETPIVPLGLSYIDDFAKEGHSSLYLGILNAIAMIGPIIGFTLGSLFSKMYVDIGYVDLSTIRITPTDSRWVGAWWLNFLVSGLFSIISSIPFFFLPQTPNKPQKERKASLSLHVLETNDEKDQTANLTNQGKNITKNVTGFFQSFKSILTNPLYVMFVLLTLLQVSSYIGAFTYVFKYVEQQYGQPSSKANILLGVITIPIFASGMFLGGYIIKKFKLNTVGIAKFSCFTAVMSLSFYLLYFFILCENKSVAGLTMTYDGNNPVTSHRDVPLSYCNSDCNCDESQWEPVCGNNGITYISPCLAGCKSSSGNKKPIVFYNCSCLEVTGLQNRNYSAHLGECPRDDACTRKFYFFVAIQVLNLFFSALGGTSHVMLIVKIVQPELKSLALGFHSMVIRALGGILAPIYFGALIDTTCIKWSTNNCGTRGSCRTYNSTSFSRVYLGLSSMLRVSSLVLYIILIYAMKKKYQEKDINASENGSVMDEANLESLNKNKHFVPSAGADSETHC

[1] = PK of single agents versus fixed dose combinations, single dose in healthy volunteers; type: in vivo, human; conditions: for t1/2term: mean ± SD
Experimental: SMV (100 mg), ODV (50 mg), and Compound (III) (800 mg) were administered as three different formulations or together as single doses in vivo to healthy volunteers. The arms of the study included: • Arm 1 (Reference Arm): Single oral doses of single agents, one SMV 100-mg capsule, one ODV 50-mg tablet as granule layered solid dispersion with copovidone and poloxamers, and two Compound (III) 400-mg tablets, administered together. • Arm 2: Single oral dose of fixed dose combination (FDC02): SMV 100 mg+ODV 50 mg as a spray dried solid dispersion with HPMC-AS L in a ratio ODV/HPMC-AS L 1/1 w/w+Compound (III) 800 mg • Arm 3: Single oral dose of fixed dose combination (FDC04): SMV 100 mg+ODV 50 mg as a spray dried solid dispersion with HPMC-AS L in a ratio ODV/HPMC-AS L 1/3 w/w+Compound (III) 800 mg • Arm 4: Single oral dose of fixed dose combination (FDC01): SMV 100 mg+ODV 50 mg as a spray dried solid dispersion with copovidone and poloxamers+Compound (III) 800 mg
PK parameters, including Cmax, tmax, AUClast, and AUC∞ were measured for Compound (III), ODV, SMV, and metabolites Compound A-I and Compound A-3 for each Arm of the study. Arms that included fixed dose combinations (FDC) (Arm 2, Arm 3, and Arm 4) were then compared to a single oral dose (Arm 1, the reference Arm). Table 9, Table 10, Table 11, Table 12 and Table 13 display relevant PK parameters and FIG. 9, FIG. 10, FIG. 11, FIG. 12, and FIG. 13 depict the plasma concentration over time of SMV, ODV, Compound A-1, and Compound A-3 for each Arm of the study.

MRP2 = MRP2 (Homo sapiens, UniProt Q92887); conditions: efflux transporter; cited from earlier work
MRP2, sequence (Q92887 whole entry): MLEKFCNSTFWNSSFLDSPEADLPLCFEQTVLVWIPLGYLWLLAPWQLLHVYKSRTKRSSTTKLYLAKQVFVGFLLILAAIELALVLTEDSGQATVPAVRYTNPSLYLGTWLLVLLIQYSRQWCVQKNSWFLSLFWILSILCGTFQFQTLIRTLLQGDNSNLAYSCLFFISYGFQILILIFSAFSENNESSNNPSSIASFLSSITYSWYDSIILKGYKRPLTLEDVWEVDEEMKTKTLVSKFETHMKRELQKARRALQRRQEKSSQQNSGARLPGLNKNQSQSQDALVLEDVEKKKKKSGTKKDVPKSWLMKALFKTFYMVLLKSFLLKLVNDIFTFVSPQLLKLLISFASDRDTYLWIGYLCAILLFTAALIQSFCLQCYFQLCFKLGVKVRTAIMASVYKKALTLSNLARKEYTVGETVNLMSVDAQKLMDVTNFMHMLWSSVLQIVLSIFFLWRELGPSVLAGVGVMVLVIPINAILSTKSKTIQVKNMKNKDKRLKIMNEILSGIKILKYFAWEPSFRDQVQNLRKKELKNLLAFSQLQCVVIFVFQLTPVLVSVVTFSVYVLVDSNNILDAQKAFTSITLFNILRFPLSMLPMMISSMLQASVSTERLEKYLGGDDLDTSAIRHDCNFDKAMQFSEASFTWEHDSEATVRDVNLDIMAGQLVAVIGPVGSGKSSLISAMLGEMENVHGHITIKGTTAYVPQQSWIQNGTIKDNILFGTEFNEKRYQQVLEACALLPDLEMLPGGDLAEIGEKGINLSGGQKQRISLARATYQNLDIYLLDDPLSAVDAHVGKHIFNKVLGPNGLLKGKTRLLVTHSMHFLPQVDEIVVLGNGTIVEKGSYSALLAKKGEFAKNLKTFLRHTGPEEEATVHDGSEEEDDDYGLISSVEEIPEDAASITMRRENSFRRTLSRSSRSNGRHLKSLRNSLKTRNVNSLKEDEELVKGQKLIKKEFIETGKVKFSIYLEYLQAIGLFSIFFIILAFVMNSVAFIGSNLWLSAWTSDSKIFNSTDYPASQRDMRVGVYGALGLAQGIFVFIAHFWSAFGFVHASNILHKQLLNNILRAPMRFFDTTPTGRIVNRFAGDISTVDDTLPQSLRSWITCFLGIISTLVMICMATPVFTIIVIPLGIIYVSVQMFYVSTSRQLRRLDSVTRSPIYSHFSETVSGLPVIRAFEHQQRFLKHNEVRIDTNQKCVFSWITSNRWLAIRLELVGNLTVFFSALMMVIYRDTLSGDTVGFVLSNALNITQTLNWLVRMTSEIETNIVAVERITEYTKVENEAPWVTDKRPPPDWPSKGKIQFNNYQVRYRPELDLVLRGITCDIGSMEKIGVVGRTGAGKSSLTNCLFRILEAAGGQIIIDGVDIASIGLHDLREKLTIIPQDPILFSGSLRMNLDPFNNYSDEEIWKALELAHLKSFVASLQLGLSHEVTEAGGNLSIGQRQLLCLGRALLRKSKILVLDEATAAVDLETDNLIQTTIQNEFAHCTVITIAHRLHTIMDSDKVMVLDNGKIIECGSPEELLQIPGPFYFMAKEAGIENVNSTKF

BSEP = BSEP (Homo sapiens, UniProt O95342); conditions: efflux transporter; cited from earlier work
BSEP, sequence (O95342 whole entry): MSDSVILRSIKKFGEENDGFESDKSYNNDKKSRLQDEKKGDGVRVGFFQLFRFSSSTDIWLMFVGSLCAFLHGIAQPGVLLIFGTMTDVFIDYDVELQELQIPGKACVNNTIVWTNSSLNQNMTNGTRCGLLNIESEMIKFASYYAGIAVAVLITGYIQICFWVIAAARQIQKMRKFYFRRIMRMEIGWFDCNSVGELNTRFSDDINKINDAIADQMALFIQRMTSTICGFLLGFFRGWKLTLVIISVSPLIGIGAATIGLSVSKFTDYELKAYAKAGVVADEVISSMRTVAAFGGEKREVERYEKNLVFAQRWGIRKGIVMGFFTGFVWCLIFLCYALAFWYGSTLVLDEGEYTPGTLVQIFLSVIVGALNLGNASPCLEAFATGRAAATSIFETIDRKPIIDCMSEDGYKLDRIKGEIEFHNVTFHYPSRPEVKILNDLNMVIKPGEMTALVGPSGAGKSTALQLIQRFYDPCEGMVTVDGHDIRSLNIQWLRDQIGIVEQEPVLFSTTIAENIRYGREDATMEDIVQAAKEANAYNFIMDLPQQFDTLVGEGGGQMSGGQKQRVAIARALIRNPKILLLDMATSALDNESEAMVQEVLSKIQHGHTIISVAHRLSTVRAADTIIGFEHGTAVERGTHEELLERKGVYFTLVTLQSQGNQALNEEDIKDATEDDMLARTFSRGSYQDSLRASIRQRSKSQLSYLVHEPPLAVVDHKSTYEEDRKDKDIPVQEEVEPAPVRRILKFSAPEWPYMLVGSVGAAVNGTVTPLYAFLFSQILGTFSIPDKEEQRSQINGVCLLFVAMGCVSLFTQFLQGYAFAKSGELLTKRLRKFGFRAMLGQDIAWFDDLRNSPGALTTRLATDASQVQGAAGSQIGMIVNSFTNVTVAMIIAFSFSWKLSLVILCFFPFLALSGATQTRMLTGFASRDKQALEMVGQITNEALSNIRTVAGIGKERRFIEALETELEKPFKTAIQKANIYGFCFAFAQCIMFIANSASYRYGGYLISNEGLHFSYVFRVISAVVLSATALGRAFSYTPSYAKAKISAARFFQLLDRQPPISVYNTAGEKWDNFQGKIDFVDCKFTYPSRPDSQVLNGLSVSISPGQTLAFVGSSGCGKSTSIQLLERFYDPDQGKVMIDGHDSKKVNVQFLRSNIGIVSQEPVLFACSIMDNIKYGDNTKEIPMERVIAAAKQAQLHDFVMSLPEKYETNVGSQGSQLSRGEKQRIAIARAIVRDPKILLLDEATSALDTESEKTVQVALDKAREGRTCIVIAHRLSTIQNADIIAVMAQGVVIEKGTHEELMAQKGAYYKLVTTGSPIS

MRP2/3 = MRP2/3 (Homo sapiens, UniProt O15438); conditions: efflux transporter; cited from earlier work
MRP2/3, sequence (O15438 whole entry): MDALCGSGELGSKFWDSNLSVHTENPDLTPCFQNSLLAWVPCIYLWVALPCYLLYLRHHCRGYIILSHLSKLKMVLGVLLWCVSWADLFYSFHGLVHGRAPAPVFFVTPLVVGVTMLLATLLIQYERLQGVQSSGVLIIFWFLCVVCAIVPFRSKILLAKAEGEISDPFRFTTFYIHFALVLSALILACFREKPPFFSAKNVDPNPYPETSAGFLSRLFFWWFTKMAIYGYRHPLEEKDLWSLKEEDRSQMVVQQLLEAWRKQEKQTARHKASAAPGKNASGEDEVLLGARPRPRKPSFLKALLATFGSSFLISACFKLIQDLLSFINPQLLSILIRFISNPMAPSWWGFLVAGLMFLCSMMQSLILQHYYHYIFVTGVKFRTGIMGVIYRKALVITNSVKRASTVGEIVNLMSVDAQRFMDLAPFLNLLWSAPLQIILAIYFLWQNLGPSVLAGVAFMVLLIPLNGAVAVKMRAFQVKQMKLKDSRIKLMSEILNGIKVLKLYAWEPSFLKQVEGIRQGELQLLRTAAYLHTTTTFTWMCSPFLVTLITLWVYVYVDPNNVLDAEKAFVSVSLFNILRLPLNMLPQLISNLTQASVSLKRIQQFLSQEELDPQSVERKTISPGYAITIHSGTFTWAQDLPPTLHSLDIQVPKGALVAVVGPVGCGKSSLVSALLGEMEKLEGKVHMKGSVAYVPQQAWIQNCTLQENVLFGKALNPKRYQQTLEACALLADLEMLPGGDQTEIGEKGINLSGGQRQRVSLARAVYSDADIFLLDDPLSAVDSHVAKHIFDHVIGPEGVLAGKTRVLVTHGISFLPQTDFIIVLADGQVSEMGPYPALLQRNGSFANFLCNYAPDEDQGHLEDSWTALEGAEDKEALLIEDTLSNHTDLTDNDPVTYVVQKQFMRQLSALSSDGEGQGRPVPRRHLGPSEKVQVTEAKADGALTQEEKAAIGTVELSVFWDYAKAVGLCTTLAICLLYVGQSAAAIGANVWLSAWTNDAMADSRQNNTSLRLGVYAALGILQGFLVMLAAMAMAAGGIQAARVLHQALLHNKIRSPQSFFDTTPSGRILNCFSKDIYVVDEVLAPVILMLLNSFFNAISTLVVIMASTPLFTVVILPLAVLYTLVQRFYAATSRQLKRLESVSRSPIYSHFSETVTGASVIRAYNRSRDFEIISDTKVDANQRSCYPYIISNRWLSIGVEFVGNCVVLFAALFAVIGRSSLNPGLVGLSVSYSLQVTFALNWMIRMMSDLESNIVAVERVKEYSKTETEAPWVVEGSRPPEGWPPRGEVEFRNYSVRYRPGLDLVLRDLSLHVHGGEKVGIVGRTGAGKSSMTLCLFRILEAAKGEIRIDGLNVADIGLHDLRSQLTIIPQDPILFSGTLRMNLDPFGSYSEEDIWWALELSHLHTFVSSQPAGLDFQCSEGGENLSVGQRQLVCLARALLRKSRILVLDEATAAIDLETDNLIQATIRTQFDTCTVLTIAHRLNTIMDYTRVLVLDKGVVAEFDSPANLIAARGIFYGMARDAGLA

[2] = Phase 2a open-label combination study, pharmacokinetics; type: in vivo, human
Experimental: A randomized, Phase 2a, open-label study was carried out to evaluate the safety, pharmacokinetics and efficacy of the combination of Compound (III), Odalasvir and Simeprevir in Genotype 1 treatment-naïve subjects with chronic hepatitis C. Other treatment-naïve subjects included Genotype 2, 3, 4, 5 and 6. The aim of the study was to determine the efficacy, pharmacokinetics (PK), and safety of Compound (III)+Odalasvir±SMV in HCV-infected subjects. […] Efficacy, PK and safety evaluations were conducted during and through 24 weeks post dosing. Up to 15 cohorts were enrolled; data was generated from cohorts that have completed dosing.

Structure (SMILES)	IC50 (CYP) [µM]	in vitro inhibition of OATP1B1 (OATP1B1)	t1/2term ([1]; Arm 1 (reference): single agents, single oral dose) [min]	t1/2term ([1]; Arm 2: FDC02, single oral dose) [min]	t1/2term ([1]; Arm 3: FDC04, single oral dose) [min]	t1/2term ([1]; Arm 4: FDC01, single oral dose) [min]	Tmax ([1]; human, in vivo, Arm 1 (reference): single agents, single oral dose, median [range]) [min]	in vitro inhibition of MRP2 (MRP2)	in vitro inhibition of BSEP (BSEP)	in vitro inhibition of MRP3 (MRP2/3)	decrease of exposure on reducing Odalasvir dosing from once a day to every other day ([2]; 50 mg)	observed exposure in Cohort 1 / group (i) versus anticipated ([2]; Compound (III) 400 mg, ODV 50 mg QD, SMV 100 mg QD)
CC(C)OC(=O)C(C)N[P@](=O)(OC[C@@]1(F)O[C@@H](n2ccc(=O)[nH]c2=O)[C@](C)(O)[C@@H]1O)Oc1ccccc1 (stereo in doubt) [Compound (III)]	> 26	no in vitro inhibition	36 ± 6	42 ± 12	42 ± 6	36 ± 6	120					
COC(=O)N[C@H](C(=O)N1[C@H](c2nc3cc(-c4cc5ccc4CCc4ccc(c(-c6ccc7[nH]c([C@@H]8C[C@@H]9CCCC[C@@H]9N8C(=O)[C@@H](NC(=O)OC)C(C)C)nc7c6)c4)CC5)ccc3[nH]2)C[C@@H]2CCCC[C@@H]21)C(C)C [ODV, methyl [(2S)-1-[(2S,3aS,7aS)-2-[6-[11-[2-[(2S,3aS,7aS)-1-[(2S)-2-[(methoxycarbonyl)amino]-3-methylbutanoyl]octahydro-1H-indol-2-yl]-1H-benzimidazol-6-yl]tricyclo[8.2.2.2^4,7]hexadeca-1(12),4,6,10,13,15-hexaen-5-yl]-1H-benzimidazol-2-yl]octahydro-1H-indol-1-yl]-3-methyl-1-oxobutan-2-yl]carbamate]		no inhibition						no inhibition	no inhibition	no inhibition	proportionally	higher than anticipated
